The values that follow come from patent US20220409617A1, “Drug Formulations and Methods of Treatment for Metabolic Disorders” (The Regents of the University of California, priority 2019, published 2022).

The test system of experiment [1] is mouse embryonic fibroblasts. As to the kind of experiment: Basal 2-deoxyglucose uptake in fibroblasts. In kind it is cell-based. The conditions noted are these: 3 h, 893 5 or 10 μM. The procedure: Glucose uptake assays were performed using the Glucose-Glo™ uptake Kit according to manufacturer's instructions (cat # J1342, Promega, Madison, Wis.). For basal glucose uptake in MEFs, cells were plated the night before in 96-well black, clear-bottom plates. Cells were treated for 3 h, washed once in PBS, then pulsed with 1 mM 2-DG in glucose-free media containing their respective drug treatments. After 10 min, the reaction was quenched and developed according to manufacturer's protocol. To assay insulin-stimulated glucose uptake, mature adipocytes in 96-well black clear-bottom plates were serum starved for 16 h. Cells were treated in serum-free media supplemented with 0.2% fatty-acid free BSA for 3 h. Cells were washed once in PBS and incubated in glucose-free media with their respective drug treatments, with or without 100 nM bovine insulin, for 15 min. A concentrated 2-DG stock was added directly to wells for 10 min (1 mM final concentration), then the reaction stopped and developed according to manufacturer's protocol.

Another experiment relates to AKT. As to the kind of experiment: Insulin-stimulated AKT activation, western blot. The class given is cell-based, mouse. The conditions noted are these: 3T3-L1 adipocytes; 3 h pre-treatment, C2-ceramide 50 or 100 μM, 893 5 or 10 μM; insulin 100 nM 15 min. The procedure:
3T3-L1 cells were maintained in DMEM with 10% FBS and 1% penicillin-streptomycin until induced to differentiate. 3T3-L1 pre-adipocytes were differentiated as described in (M. P. Valley, et al., Anal. Biochem. 505: 43-50, 2016, the disclosure of which is incorporated herein by reference) with slight modifications. Briefly, pre-adipocytes were grown to confluence. After 2 d, cells were induced with maintenance media containing 500 μM IBMX (15879, Sigma-Aldrich, St. Louis, Mo.), 1 μM dexamethasone (D4902, Sigma-Aldrich), 5 μg/mL bovine insulin (10516, Sigma-Aldrich), and 5 μM troglitazone (50-115-0786, ApexBio). Media was changed every 2-3 d for 7 d. On day 7 post-induction, media was changed to maintenance media+5 μg/mL bovine insulin. On day 9 post-induction, media was changed to maintenance media. Mature adipocytes were used 12-14 d post-induction for all experiments. […]
Mature adipocytes were serum starved for 16 h then treated with vehicle, ceramide (50 or 100 μM), or sphingolipid-like compound 893 (5 or 10 μM) in serum-free media supplemented with 0.2% fatty-acid free BSA for 3 h after which 100 nM insulin was added for 15 min. […] Protein content was quantified in the supernatant using the Pierce™ BCA Protein Assay Kit (Thermo-Fisher Scientific, Waltham, Mass.). […]
A general note: In western blotting, separated proteins are transferred to a membrane and probed.

For the compound `CCCCCCCCc1ccc([C@H]2CCN[C@@H]2CO)cc1.Cl` [compound 893], the Constitutive glucose uptake result in experiment [1] was “constitutive glucose uptake in fibroblasts was reduced”. The “Insulin-stimulated AKT activation” value with AKT was “but not sphingolipid-like compound 893, interfered with insulin-stimulated AKT activation”.
